This test concerns the target D(2) dopamine receptor (Rattus norvegicus) (UniProt P61169).

Sequence of D(2) dopamine receptor (Rattus norvegicus) (P61169 whole entry, looked up): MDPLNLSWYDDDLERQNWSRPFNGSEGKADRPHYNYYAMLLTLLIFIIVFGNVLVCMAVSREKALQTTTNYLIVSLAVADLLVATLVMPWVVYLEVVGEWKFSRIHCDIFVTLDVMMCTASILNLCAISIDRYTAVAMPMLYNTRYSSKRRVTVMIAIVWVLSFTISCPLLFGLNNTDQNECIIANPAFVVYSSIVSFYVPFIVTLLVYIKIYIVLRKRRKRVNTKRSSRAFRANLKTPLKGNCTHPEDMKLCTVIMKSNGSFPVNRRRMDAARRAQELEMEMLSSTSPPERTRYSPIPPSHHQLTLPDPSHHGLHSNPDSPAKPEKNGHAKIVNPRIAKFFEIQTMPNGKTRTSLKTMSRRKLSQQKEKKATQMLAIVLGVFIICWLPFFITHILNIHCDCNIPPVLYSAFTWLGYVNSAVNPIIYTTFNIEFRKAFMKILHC

`CN1C[C@H](C(N)=O)C=C2c3cccc4[nH]c(Br)c(c34)C[C@H]21` registered an inhibition constant Ki of 2 nM.

(Values after ChEMBL document CHEMBL1131163 (J Med Chem, 1998).)
